Experiments:
SH-SY5Y cells = assay: Cytotoxicity test (CCK-8 cell viability) in SH-SY5Y cells; format: cell-based, human; details: SH-SY5Y, 0, 0.1, 1, 10, 100 μM, 24 hours
Protocol: Human undifferentiated neuroblastoma cell line SH-SY5Y and human embryonic kidney cell line (HEK)-293T were purchased from Korean Cell Line Bank (Korea) and Takara (Japan), respectively. Cells were grown in HyClone Minimal Essential Medium (MEM) and Dulbecco's Modified Eagle Medium (DMEM), respectively, supplemented with 10% (v/v) fetal bovine serum (FBS), penicillin (100 U/mL), and streptomycin ([…]). Cells were maintained in a humidified atmosphere of 95% air and 5% CO2 at 37° C. Cells were passaged 10 times at maximum. Cells were dissociated using 0.05% trypsin-EDTA solution and the cells were seeded in new culture dishes for maintenance. […]
The time of co-incubation was 24 hours and six replicates were made for each measurement. Finally, 10 μL of CCK-8 reagent (Dojindo Laboratories, Rockville, MD) was added to each well, and after incubation at 37° C. for 3 minutes, the OD at 450 nm was measured using a multifunction microplate reader (Tecan Infinite M200 Pro). These measurements were compared to that of a control and expressed as a percentage of the control to calculate cell viability. The IC50 value was calculated using SPSS software. To do this, the absorbance of the blank wells with only growth medium is subtracted from the values or the wells with cells. […]
The cytotoxicity of the compound was evaluated by treating cells with BnH12003 and measuring cell viability.

APP/PS1 mice = assay: Hippocampal fEPSP I/O curve and LTP in Alzheimer's model mice; format: in vivo, mouse; details: hippocampus CA1, Os pump ventricular infusion 3 μM
Description: Field recordings were made with a concentric bipolar electrode positioned in the stratum radiatum of the CA1 region using an extracellular glass pipette (3.5 M (2) filled with aCSF. Specifically, fEPSPs were evoked by Schaffer collateral (SC)/commissural fibers with a concentric bipolar electrode placed 200 to 300 μm from the recording pipette. Stimulation was delivered through a bipolar electrode (FHC, Bowdoin, ME, USA) placed in the Schaffer collateral-CA1 (SC). Te SC circuit was visualized using differential interference contrast (DIC) microscopy at 4× magnification and identified by the ability to evoke short and constant latency field excitatory postsynaptic potentials (fEPSPs) at CA1 synapses by SC input stimulation. In all fEPSP experiments, the test stimulation were measured prior to the beginning of all the experiments (30 μA) and a test-pulse stimulation strength that evokes 50% of the maximum fEPSP was used. Baseline synaptic responses was recorded for 30 minutes, and then long-term potentiation (LTP) was induced by high-frequency stimulation (HFS; 100 Hz, 4 trains, 1 s duration, 20 s inter-train interval). […]
Excitatory postsynaptic potential (EPSP) was recorded by the whole-cell patch clamp method using a patch clamp amplifier (molecular devices, USA). […] It was then recorded for 60 minutes (LTP). […]

BDNF = BDNF expression in SH-SY5Y cells; format: cell-based, human; details: 1 μM, application for 6 and 24 hours
Protocol: Human undifferentiated neuroblastoma cell line SH-SY5Y and human embryonic kidney cell line (HEK)-293T were purchased from Korean Cell Line Bank (Korea) and Takara (Japan), respectively. Cells were grown in HyClone Minimal Essential Medium (MEM) and Dulbecco's Modified Eagle Medium (DMEM), respectively, supplemented with 10% (v/v) fetal bovine serum (FBS), penicillin (100 U/mL), and streptomycin ([…]). Cells were maintained in a humidified atmosphere of 95% air and 5% CO2 at 37° C. Cells were passaged 10 times at maximum. Cells were dissociated using 0.05% trypsin-EDTA solution and the cells were seeded in new culture dishes for maintenance.
RT-PCR was used to measure the amount of BDNF and GluN2B in response to compounds of the present disclosure. 293T cells were dissociated using 0.05% Trypsin-EDTA solution and seeded in 24 well or 6 well dishes for RNA work. After incubation at 37° C. in a humidified atmosphere with 5% CO2 for 24 hours, the culture medium was replaced by a medium containing a series of concentrations of tested compounds diluted with the DMEM without FBS. Time course experiments were performed. The same volume of DMSO was used for negative control.
Similarly, BnH12003 (1 μM) augmented BDNF and GluN2B expression by application for 6 and 24 hours in SH-SY5Y cells (FIGS. 11A and 11B).

In the case of `C[C@H]1CC[C@@H](C(=O)O)CN1C(=O)Cc1ccc(-c2cncnc2)cc1` [BnH12003, (3R,6S)-6-methyl-1-(2-(4-(pyrimidin-5-yl)phenyl)acetyl) piperidine-3-carboxylic acid], the cell viability (SH-SY5Y cells) is reported as “no significant change in cell viability”, the “I/O curve of field EPSP (synaptic efficacy)” value (APP/PS1 mice) is reported as “synaptic efficacy was increased” and the “LTP of EPSP, excitatory SC pathway” value (APP/PS1 mice) is reported as “significantly increased”. For the same compound, the BDNF expression (BDNF) was “augmented”.
